Data published in patent US20090018136A1, “METHODS AND COMPOSITIONS FOR THE TREATMENT OF VASCULAR DISEASE” (priority 2005, published 2009).

Legend:
hypertensive patients [1] = experiment: Study 1: blood pressure and heart rate during 8 weeks of oral BH4; type: in vivo, human
Experimental: Prior studies have used parenteral infusion of BH4 or a single oral dose; thus it was not known whether long-term oral BH4 over a period of days to weeks would result in a sustained improvement in endothelial dysfunction. […] Two studies were conducted to investigate the duration of action of oral BH4 and the response of hypertensive subjects to different doses of BH4. […] Patients were continued on their current anti-hypertensive therapy which remained unchanged. […] BH4 powder was obtained from Schircks Laboratories (Jona, Switzerland). BH4 when administered with vitamin C was compounded with vitamin C at a ratio of 1 mg of vitamin C/1 mg BH4 into appropriate sized capsules. Subjects were advised to keep the pills in a freezer or refrigerator. Eight subjects were recruited, 3 male, mean age 60.5±10.9 years. Subjects were assigned to one of two groups. One group received BH4 10 mg/kg/day (n=4) and the other group received 5 mg/kg/day (n=4) given in two divided doses orally for 8 weeks. These dosages were based on dosing of BH4 used in phenylketonuria. Weekly BP measurements were made throughout the treatment period, and at one week and 6 weeks after discontinuation. Mean blood pressure was calculated as: (SBP+2×DBP)/3. For both study 1 and study 2, the primary end point after statistical analysis was a reduction of systolic, mean and diastolic BP during BH4 therapy. Secondary end points included improvement of endothelial function as FMD. Linear mixed effects models for repeated measures data were used to analyze change in BP from baseline to end of treatment period and differences in change between 100 mg and 200 mg dose groups. A quadratic term for week was included in the model to account for non-linear trends over the treatment period. Dose, week and week squared were the main effect terms in the model; dose by week and dose by week squared were the interaction terms in the model. Significant interaction terms indicate a difference in the pattern of change between the two dose groups. FMD data was analyzed using the two-tailed student t-test.

[2] = test system: venous grafts and arteries; settings: acute BH4; diabetic subjects undergoing coronary artery bypass graft surgery; cited from earlier work
cardiac allograft = settings: cited from earlier work
hypertensive patients [3] = experiment: Study 2: dose-response of oral BH4 on blood pressure and heart rate, after 2-week vitamin C run-in; type: in vivo, human
Experimental: Prior studies have used parenteral infusion of BH4 or a single oral dose; thus it was not known whether long-term oral BH4 over a period of days to weeks would result in a sustained improvement in endothelial dysfunction. […] Two studies were conducted to investigate the duration of action of oral BH4 and the response of hypertensive subjects to different doses of BH4. […] Patients were continued on their current anti-hypertensive therapy which remained unchanged. […] BH4 powder was obtained from Schircks Laboratories (Jona, Switzerland). BH4 when administered with vitamin C was compounded with vitamin C at a ratio of 1 mg of vitamin C/1 mg BH4 into appropriate sized capsules. Subjects were advised to keep the pills in a freezer or refrigerator. For both study 1 and study 2, the primary end point after statistical analysis was a reduction of systolic, mean and diastolic BP during BH4 therapy. Secondary end points included improvement of endothelial function as FMD. Linear mixed effects models for repeated measures data were used to analyze change in BP from baseline to end of treatment period and differences in change between 100 mg and 200 mg dose groups. A quadratic term for week was included in the model to account for non-linear trends over the treatment period. Dose, week and week squared were the main effect terms in the model; dose by week and dose by week squared were the interaction terms in the model. Significant interaction terms indicate a difference in the pattern of change between the two dose groups. FMD data was analyzed using the two-tailed student t-test. […] Of the 20 subjects who qualified for participation, 4 were excluded during the run-in phase because of inability to return for follow-up appointments. There were 6 male subjects, mean age 59.5±8.3 years. Eight subjects received 200 mg b.i.d (twice daily) of oral BH4 and 8 received 100 mg b.i.d. of oral BH4. […] Because BH4 was compounded with vitamin C in a 1:1 ratio, all subjects received vitamin C, at their assigned BH4 dose, twice a day during the first 2-week period. After this 2-week run-in period, subjects received BH4 only at their assigned dosage for the next 4 weeks. Weekly heart rate and BP measurements were made during the run-in period and treatment period. Mean blood pressure was calculated as: (SBP+2×DBP)/3. BH4 was then stopped and follow-up was performed at 1 and 4 weeks after discontinuation where BP and heart rate measurements were made. Routine chemistries and LFT's were drawn prior to initiation of medication, at the end of BH4 therapy and one month after discontinuation of BH4.

C[C@H](O)[C@H](O)[C@H]1CNc2nc(N)[nH]c(=O)c2N1 [BH4, tetrahydrobiopterin]
change in diastolic BP (hypertensive patients [1]; Study 1): did not reach statistical significance | change in heart rate with BH4 (hypertensive patients [1]; Study 1): no significant change | differences between the 5 mg/kg and 10 mg/kg doses of BH4 (hypertensive patients [1]; Study 1): no statistically significant differences | BP after discontinuation of therapy (hypertensive patients [1]; Study 1, 6 weeks after discontinuation, p=ns compared to baseline): returned toward pre-treatment levels | systolic BP lower by a mean of (hypertensive patients [1]; Study 1, after 3 weeks, p=0.004): 13±9 mmHg | systolic BP lower by a mean of (hypertensive patients [1]; Study 1, after 5 weeks, p=0.04, persisted for the 8 weeks of treatment): 15±15 mmHg | reduction in systolic BP with BH4 (hypertensive patients [1]; Study 1, combined group (5 and 10 mg/kg/day oral, two divided doses, 8 weeks), p=0.005 quadratic trend): significant reduction | reduction in mean arterial BP with BH4 (hypertensive patients [1]; Study 1, combined group, 8 weeks, p=0.01): significant reduction | duration for which BP reduction was sustained (hypertensive patients [1]; continuous therapy, without tachyphylaxis): up to 8 weeks | vascular function in venous grafts and arteries [2]: restores | mean graft survival time (cardiac allograft; BH4 50 mg/kg every 8 hours intramuscularly for 7 days, untreated allografts 7.1±0.7 days, p<0.05): 12.3 ± 4.9 days | allograft survival (cardiac allograft; allogeneic mouse heart transplantation): significantly prolonged | Nitrate and nitrite concentrations in plasma (cardiac allograft; day 6, also elevated in untreated animals): elevated | change in BP (hypertensive patients [3]; Study 2, 100 mg b.i.d. of BH4): No statistically significant change | decrease in systolic BP (hypertensive patients [3]; Study 2, 200 mg b.i.d. oral BH4, 4 weeks, p=0.03): significant decrease | decrease in mean BP (hypertensive patients [3]; Study 2, 200 mg b.i.d. oral BH4, 4 weeks, p=0.04 by linear trend analysis): significant decrease | BP after discontinuation of BH4 (hypertensive patients [3]; Study 2, 200 mg b.i.d., 4 weeks after discontinuation): returned to baseline levels | BP after termination of therapy (hypertensive patients [3]; Study 2, 200 mg b.i.d., a week after termination): remained lower | systolic BP mean lowering at nadir (hypertensive patients [3]; Study 2, 200 mg b.i.d., after 3 weeks, p=0.04): 16 mmHg | Mean BP after one week (hypertensive patients [3]; Study 2, 200 mg b.i.d., p=0.02): significantly lower | decrease in diastolic BP (hypertensive patients [3]; Study 2, 200 mg b.i.d., p=0.08): did not reach statistical significance | alteration in heart rate with BH4 (hypertensive patients [3]; Study 2, either group, 100 mg or 200 mg b.i.d.): no significant alteration | dose at which the BP-lowering effect was observed (hypertensive patients [3]; oral BH4, free of any changes in heart rate): ≥ 200 mg b.i.d. | time until reduction in BP was evident (hypertensive patients [3]; oral BH4 therapy): ≤ 1 week
